Data as given in the NIST ThermoML archive (doi:10.1016/j.fluid.2014.09.015).
± gives the expanded uncertainty stated by the source.

Details: Liquid, Closed cell (Static) method

Compound: CC(O)CO (stereo not given) [1,2-propanediol]
- vapor or sublimation pressure (350.15 K): 0.84 ± 0.023 kPa
- vapor or sublimation pressure (355.15 K): 1.131 ± 0.031 kPa
- vapor or sublimation pressure (360.15 K): 1.506 ± 0.037 kPa
- vapor or sublimation pressure (365.15 K): 1.987 ± 0.045 kPa
- vapor or sublimation pressure (370.15 K): 2.596 ± 0.049 kPa
- vapor or sublimation pressure (375.15 K): 3.361 ± 0.031 kPa
- vapor or sublimation pressure (380.15 K): 4.316 ± 0.039 kPa
- vapor or sublimation pressure (385.15 K): 5.496 ± 0.047 kPa
- vapor or sublimation pressure (390.15 K): 6.946 ± 0.051 kPa
- vapor or sublimation pressure (395.15 K): 8.715 ± 0.052 kPa
- vapor or sublimation pressure (400.15 K): 10.86 ± 0.067 kPa
- vapor or sublimation pressure (405.15 K): 13.44 ± 0.074 kPa
- vapor or sublimation pressure (410.15 K): 16.53 ± 0.062 kPa
- vapor or sublimation pressure (415.15 K): 20.22 ± 0.068 kPa
- vapor or sublimation pressure (420.15 K): 24.59 ± 0.082 kPa
